# Laboratory results published in patent US20150056273A1 (National Taiwan University of Science and Technology, priority 2013, published 2015).
# What was measured:
# [1] = percutaneous penetration experiments with different microbubble sizes, pigskin; assay type: in vitro ADME, pig; details: microbubbles 1 minute, then dye with ultrasound 15 minutes
# Text: In another experiment, the skin tissue simulator formed form the agar gel is replaced by a pigskin of 2 mm thickness. The perfusion zone was placed on the pigskin for conducting the percutaneous penetration experiments, and the experimental system and the methods were similar to the penetration-through experiments of the agar stimulator. The experiment also use different ultrasound energy for 1 W/cm^2, 2 W/cm^2 and 3 W/cm^2, and the particle sizes of the microbubbles in the microbubble ultrasonic contrast agent are about 1.4 μm, 2.1 μm, and 3.5 μm. […] Then the microbubble ultrasonic contrast agent was washed away. The dye solution was placed in the perfusion zone and the ultrasound was applied for 15 minutes to force the dye diffused into the tissue simulator.
# [2] = penetration-through experiments with different microbubble sizes, agar tissue simulator; assay type: in vitro ADME; details: 1 minute, 0.25 wt % Evans blue, microbubbles 2×10^8 particles/ml
# Text: The percutaneous penetration experiments with different microbubble diameters are also been made. […] A skin tissue simulator 20 is formed of 0.3 wt % agarose gel (agar gel). The mechanical oscillation wave source may be an ultrasound probe 40. The ultrasound probe 40 is mounted on the dropper rack 22 and the ultrasound probe 40 is set at a distance of about 5 mm from the tissue stimulator 20. The conductive gel 35 is disposed on the probe 40 so that the conductive gel 35 is located apart from the tissue stimulator 20 with a distance of about 3 mm. The perfusion zone 33 is placed above the tissue stimulator 20 and the conductive gel 30 is located outside of the perfusion zone 33.
# And the dye for observing the penetration depth in the skin tissue simulator is Evans blue which mixed with water to form a 0.25 wt % dye solution.
# The surface of the tissue stimulator is rinsed three times (1000 μl). The control group utilized the saline solution of 0.25 wt % Evans blue dye. […] After the dye placed in the perfusion zone for a predetermined time, the penetration depth of the dye of the tissue stimulator was observed by the microscope and the results were processed by MATLAB program to calculate the dye penetration depth.
# In the following experiments, different parameters were changed to find the best conditions for the penetration depth of the dye. […] And each group further had three experiments with the different ultrasound energy for 1 W/cm^2, 2 W/cm^2, and 3 W/cm^2. The ultrasound applied for 1 minute.
smiles,measurement,setting,value
"Cc1cc(-c2ccc(/N=N/c3ccc4c(S(=O)(=O)O)cc(S(=O)(=O)O)c(N)c4c3O)c(C)c2)ccc1/N=N/c1ccc2c(S(=O)(=O)O)cc(S(=O)(=O)O)c(N)c2c1O [U only, Evans blue]",penetration depth of the dye,[1]; ultrasound 1 W (1 W/cm^2),12.78 μm
same,penetration depth of the dye,[1]; ultrasound 2 W (2 W/cm^2),14.17 μm
same,penetration depth of the dye,[1]; ultrasound 3 W (3 W/cm^2),15.5 μm
same,penetration depth of the dye,[2]; ultrasound 1 W (1 W/cm^2),373 ± 23 μm
same,penetration depth of the dye,[2]; ultrasound 2 W (2 W/cm^2),354 ± 14 μm
same,penetration depth of the dye,[2]; ultrasound 3 W (3 W/cm^2),379 ± 20 μm
